From patent US20130137682A1, “PEST CONTROL COMPOSITION” (SUMITOMO CHEMICAL COMPANY, LIMITED, priority 2010, published 2013)

Test system: Haemaphysalis longicornis
Assay: Test Example 3: insecticidal test on Haemaphysalis longicornis by treating glass surface
Type: in vivo
Settings: 48 h, read-out: Mortality Rate (%)
Description: Insecticidal Test on Haemaphysalis longicornis by Treating Glass Surface
Acetone solutions were each prepared for the present hydrazide compounds and the present neonicotinoid compounds. To inner walls of a glass screw tube and lid (NO. 5, manufactured by Maruemu Corporation), 0.2 mL of the acetone solution was uniformly applied. […] The lid is closed tightly, and the number of dead ticks is examined after 2 days.

CCN(Cc1ccc(Cl)nc1)/C(=C/[N+](=O)[O-])NC [Nitenpyram, nitenpyram]
mortality at 500 mg/m2: 20%
